Measured values: EP4389107A1, “METHOD OF PREPARATION OF COSMETIC C[…] […] AND COSMETIC C[…] […]” (Aero-Bw K. Domagala Sp. Jawna, priority 2022, dated 2024)
Values joined by “and” are separate entries in the source; they are usually repeats but may differ in a detail not shown here. Equal values may be shown once.

Tested on: Salmonella typhimurium TA98
Assay: Ames test, strain TA98
Assay type: cell-based
Details: positive control at 2 µg/mL

O=[N+]([O-])c1ccc2c(c1)Cc1ccccc1-2 [2-nitrofluorene (2-NF), 2-nitrofluorene]
MOI (Multiplicity of induction compared to baseline): 6.9 and 5.6
